Several values for one entry are separate records, joined by “and”; a condition that tells them apart may be missing. Equal entries are not always repeated. Where two headings read alike, the source gives them in different places.
Settings: 1 mg single oral dose, fasting; for AUC0-∞: not corrected by dose/weight
Procedure: The data used in this work were obtained from four bioequivalence clinical trials conducted at the Clinical Trials Unit of the Hospital Universitario de La Princesa (UECHUP) (EUDRA-CT IDs: 2012-004433-17, 2013-002159-14, 2014-001123-77 and 2021-000315-23). […] The reference formulation (R) in all cases was Azilect® 1 mg tablets (TEVA Pharmaceuticals Europe B.V.), which was compared against different test formulations (T), all of them 1 mg tablets, except in clinical trial 3, whose test formulation was orodispersible 1 mg. The four bioequivalence trials had two periods and two sequences (TR and RT). In the first period, the volunteers randomly were administered one of the two formulations and, in the following period, after a 7-day washout period, the opposite formulation. All of them were reviewed and approved by Independent Ethics Board (IEB) of the Hospital Universitario de La Princesa, and by the Spanish Drug Agency (AEMPS). In addition, they were performed in accordance with the guidelines of the International Conference on Harmonization for Good Clinical Practice (ICH-GCP), current Spanish legislation and the Revised Declaration of Helsinki. The pharmacogenetic study (SFC-FG-2020-1) was likewise approved by the IEB of Hospital Universitario de La Princesa (registry number 4176, 9 July 2020).
In each period, the drug was administered under fasting conditions, which were maintained until 5 h after drug administration. Each subject provided 20 or 21 blood samples (depending on the clinical trial) that were extracted by BD Vacutainer® vacuum system with EDTA K2 tubes for analysis at different times between 0 h (before receiving the drug) and up to 12 h after drug intake. […] A high-performance liquid chromatography coupled to triple quadrupole mass spectrometry (HPLC-MS/MS) analytical method was used. The latter was validated according to European regulations for bioequivalence assessment, with a lower limit of quantification (LLOQ) of 10 pg/mL and a calibration range of 10–10,000 pg/mL.
Pharmacokinetic parameters were calculated with WinNonlin Professional (Scientific Consulting, Inc., Cary, NC, USA) following a non-compartmental model. The area under the curve (AUC0-t), was obtained by the trapezoidal method. The extrapolation to infinity (AUC0-∞) was determined by the sum of two partial AUCs: AUCt-∞ calculated by the ratio Ct/k, where Ct is the last detectable concentration and k the elimination slope; plus AUC0-t. Cmax and tmax were directly obtained from the plasma time-concentration curves. t1/2 was calculated as Ln2/k. Plasma clearance adjusted for bioavailability (Cl/F) was calculated as dose/AUC. Finally, the volume of distribution adjusted for bioavailability (Vd/F) was calculated by dividing Cl/F by k.
The SPSS software (v23.0, SPSS Inc., Chicago, IL, USA) was used for statistical analyses. AUC0-∞, and Cmax were divided by the dose/weight (DW) ratio to correct sex-related variability related to a varying weight. For the same purpose, Vd/F and Cl/F were divided by weight. With the purpose of normalizing their distributions, all pharmacokinetic parameters were logarithmically transformed for statistical analysis. Initially, a univariate analysis was conducted of the demographic characteristics according to sex and ethnicity, and of the pharmacokinetic parameters or ADR incidence based on sex, biogeographical group (hereinafter, “ethnicity”), genotypes and phenotypes. T-tests were used for the comparison of means for variables with two categories and ANOVA tests for variables with three or more categories, followed by a Bonferroni post-hoc. The Shapiro–Wilk test was used to address the normality of demographic characteristics. For those not following a normal distribution, the nonparametric Kruskal–Wallis test was used.

[1] = SLC22A1*3 (rs12208357) *1/*1, n=104
[2] = SLC22A1*3 (rs12208357) *1/*3, n=8
[3] = SLC22A1*5 (rs34059508) *1/*1, n=113
[4] = SLC22A1*5 (rs34059508) *1/*5, n=5
[5] = Total with CYP1A2 diplotype, n=115
[6] = the single volunteer with the ADR headache

- tmax (CYP2C19 µM, n=3): 0.61 ± 0.35 h
- AUC0-∞/DW (CYP2C19 IM, n=36): 258.70 ± 75.90 ng·kg·h/mL/mg
- Cmax/DW (CYP2C19 IM, n=36): 415.50 ± 185.56 ng·kg/mL/mg
- t1/2 (CYP2C19 IM, n=36): 2.85 ± 0.84 h
- tmax (CYP2C19 IM, n=36): 0.46 ± 0.22 h
- AUC0-∞/DW (CYP2C19 NM, n=56): 267.83 ± 70.38 ng·kg·h/mL/mg
- Cmax/DW (CYP2C19 NM, n=56): 402.65 ± 142.62 ng·kg/mL/mg
- t1/2 (CYP2C19 NM, n=56): 2.67 ± 0.91 h
- tmax (CYP2C19 NM, n=56): 0.53 ± 0.27 h
- AUC0-∞/DW (CYP2C19 PM, n=2): 302.71 ± 14.98 ng·kg·h/mL/mg
- Cmax/DW (CYP2C19 PM, n=2): 412.92 ± 55.36 ng·kg/mL/mg
- t1/2 (CYP2C19 PM, n=2): 1.55 ± 0.41 h
- tmax (CYP2C19 PM, n=2): 0.75 ± 0.11 h
- AUC0-∞/DW (CYP2C19 RM, n=21): 274.03 ± 86.22 ng·kg·h/mL/mg
- Cmax/DW (CYP2C19 RM, n=21): 426.69 ± 180.45 ng·kg/mL/mg
- t1/2 (CYP2C19 RM, n=21): 2.66 ± 0.85 h
- tmax (CYP2C19 RM, n=21): 0.41 ± 0.11 h
- AUC0-∞/DW (Caucasian, n=83): 258.45 ± 71.81 ng·kg·h/mL/mg
- Cmax/DW (Caucasian, n=83): 418.18 ± 169.33 ng·kg/mL/mg
- t1/2 (Caucasian, n=83): 2.56 ± 0.84 h
- tmax (Caucasian, n=83): 0.47 ± 0.19 h
- AUC0-∞/DW (Men, n=53): 278.61 ± 73.51 ng·kg·h/mL/mg
- Cmax/DW (Men, n=53): 447.91 ± 163.88 ng·kg/mL/mg
- t1/2 (Men, n=53): 2.31 ± 0.85 *^& h
- tmax (Men, n=53): 0.52 ± 0.28 h
- AUC0-∞/DW (Mixed ethnicity, n=35): 281.05 ± 80.09 ng·kg·h/mL/mg
- Cmax/DW (Mixed ethnicity, n=35): 389.35 ± 147.25 ng·kg/mL/mg
- t1/2 (Mixed ethnicity, n=35): 2.95 ± 0.94 h
- tmax (Mixed ethnicity, n=35): 0.55 ± 0.31 h
- AUC0-∞/DW (NAT2 RA, n=9): 230.53 ± 67.28 ng·kg·h/mL/mg
- Cmax/DW (NAT2 RA, n=9): 315.46 ± 178.72 ng·kg/mL/mg
- t1/2 (NAT2 RA, n=9): 2.72 ± 0.68 h
- tmax (NAT2 RA, n=9): 0.50 ± 0.24 h
- AUC0-∞/DW (NAT2 SA, n=103): 266.53 ± 75.05 ng·kg·h/mL/mg
- t1/2 (NAT2 SA, n=103): 2.62 ± 0.83 h
- tmax (NAT2 SA, n=103): 0.49 ± 0.24 h
- AUC0-∞/DW [1]: 265.80 ± 73.86 ng·kg·h/mL/mg
- Cmax/DW [1]: 401.10 ± 159.35 ng·kg/mL/mg
- t1/2 [1]: 2.71 ± 0.89 h
- tmax [1]: 0.51 ± 0.24 h
- AUC0-∞/DW [2]: 258.87 ± 34.73 ng·kg·h/mL/mg
- Cmax/DW [2]: 473.14 ± 99.07 ng·kg/mL/mg
- t1/2 [2]: 2.22 ± 0.81 h
- tmax [2]: 0.35 ± 0.11 (pu = 0.038 pm = 0.032) h
- AUC0-∞/DW [3]: 267.52 ± 75.21 ng·kg·h/mL/mg
- Cmax/DW [3]: 415.96 ± 161.85 ng·kg/mL/mg
- t1/2 [3]: 2.70 ± 0.89 h
- tmax [3]: 0.49 ± 0.23 h
- AUC0-∞/DW [4]: 211.83 ± 36.15 ng·kg·h/mL/mg
- t1/2 [4]: 2.24 ± 0.71 h
- tmax [4]: 0.67 ± 0.24 (pu = 0.018) h
- AUC0-∞/DW [5]: 265.29 ± 75.63 ng·kg·h/mL/mg
- Cmax/DW [5]: 411.77 ± 164.35 ng·kg/mL/mg
- t1/2 [5]: 2.66 ± 0.89 h
- tmax [5]: 0.49 ± 0.24 h
- AUC0-∞/DW (Total, n=118): 265.16 ± 74.74 ng·kg·h/mL/mg
- t1/2 (Total, n=118): 2.68 ± 0.89 h
- tmax (Total, n=118): 0.49 ± 0.24 h
- AUC0-∞/DW (UGT1A6 rs7592281 G/G, n=111): 264.10 ± 73.64 ng·kg·h/mL/mg
- Cmax/DW (UGT1A6 rs7592281 G/G, n=111): 409.07 ± 159.30 ng·kg/mL/mg
- t1/2 (UGT1A6 rs7592281 G/G, n=111): 2.66 ± 0.89 h
- tmax (UGT1A6 rs7592281 G/G, n=111): 0.48 ± 0.22 h
- AUC0-∞/DW (UGT1A6 rs7592281 G/T, n=7): 281.88 ± 95.76 ng·kg·h/mL/mg
- Cmax/DW (UGT1A6 rs7592281 G/T, n=7): 418.57 ± 229.87 ng·kg/mL/mg
- t1/2 (UGT1A6 rs7592281 G/T, n=7): 3.03 ± 0.72 h
- tmax (UGT1A6 rs7592281 G/T, n=7): 0.70 ± 0.32 (pu = 0.021, pm = 0.029) h
- AUC0-∞/DW (Women, n=65): 254.19 ± 74.50 ng·kg·h/mL/mg
- Cmax/DW (Women, n=65): 378.42 ± 156.70 ng·kg/mL/mg
- t1/2 (Women, n=65): 2.98 ± 0.80 h
- tmax (Women, n=65): 0.48 ± 0.19 h
- AUC0-∞ (men): 3.71 ± 0.88 ng·h/mL
- AUC0-∞/DW [6]: 197.49 ng·kg·h/mL/mg
- Cmax/DW [6]: 339.71 ng·kg/mL/mg
- AUC0-∞ (women): 4.29 ± 1.41 ng·h/mL
Structure (SMILES): C#CCN[C@@H]1CCc2ccccc21 [rasagiline, Rasagiline]
- Cmax/DW (NAT2 SA, n=103): 420.47 ± 161.94 (pu = 0.018, pm = 0.018) ng*kg/mL*mg
- Cmax/DW [4]: 266.58 ± 130.60 (pu = 0.022, pm = 0.003) ng*kg/mL*mg
- Cmax/DW (Total, n=118): 409.63 ± 163.00 ng·kg/mL/mg and 409.63 ± 163.01 ng·kg/mL/mg
